Measured values taken from PubChem BioAssay AID330 (DTP/NCI, 2004).
Where “and” joins values, the source holds several entries; their conditions need not be identical. Identical values can stand only once. Toxic doses and inconclusive results are not listed.

Test system: P388 leukemia ip, CD2F1 mice, survival T/C
Test: NCI In Vivo Anticancer Drug Screen. Data for tumor model P388 Leukemia (intraperitoneal) in CD2F1 (CDF1) mice
Settings: endpoint: median survival time, higher = longer survival
In short: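 Mice carrying the transplanted tumor received test compound or vehicle. Survival was recorded in each group, and the value is the treated-group measurement divided by that of the vehicle-treated control group.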

[1] = dose: 12.5 mg/kg/injection, schedule: Q01DX009 (ip), vehicle: saline with Tween-80
[2] = dose: 25.0 mg/kg/injection, schedule: Q01DX009 (ip), vehicle: saline with Tween-80
[3] = dose: 6.25 mg/kg/injection, schedule: Q01DX009 (ip), vehicle: saline
[4] = dose: 50.0 mg/kg/injection, schedule: Q01DX009 (ip), vehicle: saline
[5] = dose: 50.0 mg/kg/injection, schedule: Q01DX009 (ip), vehicle: Klucel (hydroxypropylcellulose) (HPC)
[6] = dose: 100.0 mg/kg/injection, schedule: Q01DX009 (ip), vehicle: Klucel (hydroxypropylcellulose) (HPC)
[7] = dose: 200.0 mg/kg/injection, schedule: Q01DX009 (ip), vehicle: Klucel (hydroxypropylcellulose) (HPC)
[8] = dose: 50.0 mg/kg/injection, schedule: Q01DX005 (ip), vehicle: saline with Tween-80
[9] = dose: 100.0 mg/kg/injection, schedule: Q01DX005 (ip), vehicle: saline with Tween-80
[10] = dose: 200.0 mg/kg/injection, schedule: Q01DX005 (ip), vehicle: saline with Tween-80
[11] = dose: 50.0 mg/kg/injection, schedule: Q01DX009 (ip), vehicle: saline with Tween-80
[12] = dose: 100.0 mg/kg/injection, schedule: Q01DX009 (ip), vehicle: saline with Tween-80
[13] = dose: 200.0 mg/kg/injection, schedule: Q01DX009 (ip), vehicle: saline with Tween-80
[14] = dose: 60.0 mg/kg/injection, schedule: Q01DX005 (ip), vehicle: saline with Tween-80
[15] = dose: 120.0 mg/kg/injection, schedule: Q01DX005 (ip), vehicle: saline with Tween-80
[16] = dose: 240.0 mg/kg/injection, schedule: Q01DX005 (ip), vehicle: saline with Tween-80
[17] = dose: 50.0 mg/kg/injection, schedule: Q01DX005 (ip), vehicle: Klucel (hydroxypropylcellulose) (HPC)
[18] = dose: 60.0 mg/kg/injection, schedule: Q01DX005 (ip), vehicle: saline
[19] = dose: 120.0 mg/kg/injection, schedule: Q01DX005 (ip), vehicle: saline
[20] = dose: 240.0 mg/kg/injection, schedule: Q01DX005 (ip), vehicle: saline

SMILES: CC1(C)N=C(N)N=C(N)N1c1ccc(CCCCc2cccc(S(=O)(=O)F)c2)c(Cl)c1
- T/C (dose: 0.11 mg/kg/injection, schedule: Q01DX009 (ip), vehicle: saline with Tween-80): 107 % of control
- T/C (dose: 0.17 mg/kg/injection, schedule: Q01DX009 (ip), vehicle: saline with Tween-80): 111 % of control
- T/C (dose: 0.25 mg/kg/injection, schedule: Q01DX009 (ip), vehicle: saline with Tween-80): 115 % of control
- T/C (dose: 0.66 mg/kg/injection, schedule: Q01DX009 (ip), vehicle: saline with Tween-80): 107 % of control
- T/C (dose: 1.0 mg/kg/injection, schedule: Q01DX009 (ip), vehicle: saline with Tween-80): 109 % of control
- T/C (dose: 3.3 mg/kg/injection, schedule: Q01DX009 (ip), vehicle: saline with Tween-80): 160 % of control
- T/C (dose: 5.0 mg/kg/injection, schedule: Q01DX009 (ip), vehicle: saline with Tween-80): 150 % of control
- T/C (dose: 6.25 mg/kg/injection, schedule: Q01DX009 (ip), vehicle: saline with Tween-80): 150 % of control
- T/C (dose: 7.5 mg/kg/injection, schedule: Q01DX009 (ip), vehicle: saline with Tween-80): 155 % of control
- T/C (dose: 8.0 mg/kg/injection, schedule: Q01DX009 (ip), vehicle: saline with Tween-80): 154 % of control
- T/C (dose: 8.0 mg/kg/injection, schedule: Q01DX009 (ip), vehicle: saline): 157 % of control
- T/C (dose: 12.0 mg/kg/injection, schedule: Q01DX009 (ip), vehicle: saline with Tween-80): 163 % of control
- T/C (dose: 12.0 mg/kg/injection, schedule: Q01DX009 (ip), vehicle: saline): 154 % of control
- T/C [1]: 150 % of control
- T/C (dose: 18.0 mg/kg/injection, schedule: Q01DX009 (ip), vehicle: saline with Tween-80): 150 % of control
- T/C (dose: 18.0 mg/kg/injection, schedule: Q01DX009 (ip), vehicle: saline): 181 % of control
- T/C [2]: 95 % of control
- T/C (dose: 27.0 mg/kg/injection, schedule: Q01DX009 (ip), vehicle: saline with Tween-80): 150 % of control

SMILES: CS(=O)(=O)C(=Cc1ccccc1Cl)S(C)(=O)=O
- T/C (dose: 50.0 mg/kg/injection, schedule: Q04DX003 (ip), vehicle: Klucel (hydroxypropylcellulose) (HPC)): 102 % of control
- T/C (dose: 100.0 mg/kg/injection, schedule: Q04DX003 (ip), vehicle: Klucel (hydroxypropylcellulose) (HPC)): 107 % of control
- T/C (dose: 200.0 mg/kg/injection, schedule: Q04DX003 (ip), vehicle: Klucel (hydroxypropylcellulose) (HPC)): 108 % of control

SMILES: Oc1c(CN2CCCC2)cc(Nc2nccc(/C=C/c3ccc(Cl)cc3)n2)cc1CN1CCCC1
- T/C [3]: 106 % of control
- T/C (dose: 12.5 mg/kg/injection, schedule: Q01DX009 (ip), vehicle: saline): 106 % of control
- T/C (dose: 25.0 mg/kg/injection, schedule: Q01DX009 (ip), vehicle: saline): 110 % of control
- T/C [4]: 114 % of control

SMILES: CSc1cccc(NC(=O)Nc2c(C)n(C)n(-c3ccccc3)c2=O)c1
- T/C [5]: 92 % of control
- T/C [6]: 96 % of control
- T/C [7]: 88 % of control

SMILES: Cn1c(=O)ccc2c(=O)c3c(ccc4ccccc43)oc21
- T/C [8]: 94 % of control
- T/C [9]: 92 % of control
- T/C [10]: 91 % of control

SMILES: CCOC(=O)CNC(=O)Nc1ccc(S(=O)(=O)Nc2nc(C)cc(C)n2)cc1
- T/C [5]: 102 % of control
- T/C [6]: 100 % of control
- T/C [7]: 100 % of control

SMILES: CC[CH2][Sn]([CH2]CC)([O]C(C)=O)[c]1ccccc1
- T/C (dose: 1.56 mg/kg/injection, schedule: Q01DX009 (ip), vehicle: saline): 90 % of control
- T/C (dose: 3.12 mg/kg/injection, schedule: Q01DX009 (ip), vehicle: saline): 86 % of control
- T/C [3]: 87 % of control
- T/C [4]: 113 % of control

SMILES: C=C(NC(C)=O)C(=O)CCC(N)=O
- T/C (dose: 5.0 mg/kg/injection, schedule: Q01DX009 (ip), vehicle: saline sonified): 109 % of control
- T/C (dose: 10.0 mg/kg/injection, schedule: Q01DX009 (ip), vehicle: saline sonified): 109 % of control
- T/C (dose: 20.0 mg/kg/injection, schedule: Q01DX009 (ip), vehicle: saline sonified): 104 % of control

SMILES: Cc1ccccc1NC(CCN1CCCCC1)=NC(C)(C)C
- T/C [11]: 111 % of control
- T/C [12]: 103 % of control
- T/C [13]: 100 % of control

SMILES: N#CC(C(=O)CCC(=O)C(C#N)c1ccccc1Cl)c1ccccc1Cl (stereo not given)
- T/C [14]: 104 % of control
- T/C [15]: 114 % of control
- T/C [16]: 111 % of control

SMILES: Oc1[nH]c2ccccc2c1N=NC(=S)NC1C2CC3CC(C2)CC1C3 (stereo not given)
- T/C [8]: 103 % of control
- T/C [9]: 100 % of control
- T/C [10]: 103 % of control

SMILES: Fc1ccc(Nc2c3ccccc3nc3ccccc23)cc1
- T/C [1]: 110 % of control
- T/C [2]: 120 % of control

SMILES: CN(CCCCC1CCCN(C(=O)c2ccccc2)C1)C(=O)c1ccccc1 (stereo not given)
- T/C (dose: 12.5 mg/kg/injection, schedule: Q01DX005 (ip), vehicle: Klucel (hydroxypropylcellulose) (HPC)): 96 % of control
- T/C (dose: 25.0 mg/kg/injection, schedule: Q01DX005 (ip), vehicle: Klucel (hydroxypropylcellulose) (HPC)): 94 % of control
- T/C [17]: 103 % of control and 97 % of control

SMILES: CCOc1ccc2nc3cc(N=Nc4ccc(N(C)C)cc4)ccc3c(N)c2c1
- T/C [11]: 110 % of control
- T/C [12]: 110 % of control

SMILES: COC(=O)C(C)CC(C)(CC(C)(CC(C)(C)C(=O)OC)C(=O)OC)C(=O)OC (stereo not given) (tested in a mixture with another compound)
- T/C [14]: 100 % of control
- T/C [15]: 96 % of control
- T/C [16]: 100 % of control

SMILES: Nc1cccnc1
- T/C (dose: 5.0 mg/kg/injection, schedule: Q04DX003 (ip), vehicle: saline): 100 % of control
- T/C (dose: 10.0 mg/kg/injection, schedule: Q04DX003 (ip), vehicle: saline): 100 % of control
- T/C (dose: 20.0 mg/kg/injection, schedule: Q04DX003 (ip), vehicle: saline): 100 % of control

SMILES: CCOC(=O)C(C)(CCC(C)=O)C(=O)OCC
- T/C [18]: 100 % of control
- T/C [19]: 99 % of control
- T/C [20]: 108 % of control

SMILES: N=C(N)N=Nc1cc(O)c(NN=C(N)N)cc1O
- T/C (dose: 1.56 mg/kg/injection, schedule: Q01DX005 (ip), vehicle: saline with Tween-80): 102 % of control
- T/C (dose: 3.13 mg/kg/injection, schedule: Q01DX005 (ip), vehicle: saline with Tween-80): 99 % of control
- T/C (dose: 6.25 mg/kg/injection, schedule: Q01DX005 (ip), vehicle: saline with Tween-80): 102 % of control

SMILES: COC(=O)c1c(C(=O)OC)c(-c2ccc(Cl)c(Cl)c2)n2c1CCC2
- T/C [12]: 87 % of control
- T/C [13]: 89 % of control
- T/C (dose: 400.0 mg/kg/injection, schedule: Q01DX009 (ip), vehicle: saline with Tween-80): 88 % of control

SMILES: Cc1ccc(S(=O)(=O)C(Sc2ccccc2)=S=NC23CC4CC(CC(C4)C2)C3)cc1
- T/C [4]: 100 % of control
- T/C (dose: 100.0 mg/kg/injection, schedule: Q01DX009 (ip), vehicle: saline): 108 % of control
- T/C (dose: 200.0 mg/kg/injection, schedule: Q01DX009 (ip), vehicle: saline): 97 % of control

SMILES: CC(C)(C)c1cc(C[N+](C)(C)C)c(O)c(C(C)(C)C)c1
- T/C (dose: 12.5 mg/kg/injection, schedule: Q01DX005 (ip), vehicle: distilled water + alcohol): 95 % of control
- T/C (dose: 25.0 mg/kg/injection, schedule: Q01DX005 (ip), vehicle: distilled water + alcohol): 96 % of control
- T/C (dose: 50.0 mg/kg/injection, schedule: Q01DX005 (ip), vehicle: distilled water + alcohol): 101 % of control and 104 % of control

SMILES: Cc1ccc(/C=C/c2ccc([N+](=O)[O-])cc2)cc1
- T/C [17]: 105 % of control and 97 % of control
- T/C (dose: 100.0 mg/kg/injection, schedule: Q01DX005 (ip), vehicle: Klucel (hydroxypropylcellulose) (HPC)): 90 % of control and 96 % of control
- T/C (dose: 200.0 mg/kg/injection, schedule: Q01DX005 (ip), vehicle: Klucel (hydroxypropylcellulose) (HPC)): 93 % of control
- T/C (dose: 400.0 mg/kg/injection, schedule: Q01DX005 (ip), vehicle: Klucel (hydroxypropylcellulose) (HPC)): 102 % of control and 103 % of control

SMILES: O=S(=O)(O)c1ccc(-c2nnc(-c3ccccn3)nc2-c2ccc(S(=O)(=O)O)o2)o1
- T/C [18]: 102 % of control
- T/C [19]: 97 % of control
- T/C [20]: 102 % of control
